Experimental data reported in patent publication US12465648B2, “Heterobifunctional compounds as degraders of HPK1” (ICAHN SCHOOL OF MEDICINE AT MOUNT SINAI, priority 2019, dated 2025).

Tests used:
[1] = system: human PBMCs; experiment: Intracellular IFNγ and TNFα staining of human PBMC (FACS); assay type: cell-based; conditions: in combination with blinatumomab
Excerpt: EXAMPLE 355. One of the mechanisms employed by PBMC to kill their target cells is by releasing IFNγ and TNFα production. These inflammatory cytokines are known have potent cytolytic effects on cancer cells. […] Mediated PBMC killing of the Raji cells is most evident at PBMC:Raji ratio of 5:1 (FIG. 13).
To determine the number of CD19^+ Raji cells killed by human PBMC that were activated by the Blinatumomab-mediated activation, we used CountBright cell counting beads to estimate the number of cells remained after 72 hours of co-culturing of PBMC and Raji. As for the intracellular staining of the TNFα and the IFNγ, the standard para-formaldehyde-based “fix and perm” procedure was used in order to quantitate the amount of intracellular cytokine trapped inside the cells by brefeldin A. FACS analysis of stained cells is performed by BD's LSR II FACS.

[2] = system: Jurkat T cells; experiment: IL-2 production by Jurkat cells on CD3XCD28 stimulation (IL-2 ELISA); assay type: cell-based, human; conditions: wider ranges of compound concentrations
Description: (§1) EXAMPLE 348. Several compounds according to the present invention employing the indolin-2-one HPK1 binding base, (which henceforth shall be referred to as the HC58 series, the HC65 series and the HC75 series) were assessed on their abilities to degrade HPK1 and produce an elevated IL-2 response profile upon stimulation by anti-CD3- and anti-CD28-mAb-mediated (CD3XCD28) stimulation (FIGS. 1-4). The elevated IL-2 response profile induced by TCR engagement after exposure to HC58 series of HPK1 degraders is shown in FIG. 1. […] A select sub-set of the lead HPK1 degraders from the HC58 series were further characterized to determine whether they could degrade primary mouse T cells.
EXAMPLE 351. […] Furthermore, compound HC58-78 and HC90-50 were also assessed for their abilities to enhance the CD3XCD28-induced IL-2 response by primary human PBMC (FIG. 10).
For the synthesis of intermediates and examples (1-89) below, HPLC spectra for all compounds were acquired using an Agilent 1200 Series system with DAD detector. […] Clone E6-1 cells is a preferred cellular platform for studying T cell activation in response to T cell receptor engagement because it produces the cytokine IL-2, which could be used as proxy readout for the level of T cell activation. […]

[3] = molecular target: T1, HPK1 (Homo sapiens, UniProt Q92918); experiment: Western blot analysis of endogenous HPK1 level in Jurkat T cells; assay type: cell-based; conditions: for reducing HPK1 protein levels: characterization of exemplary degraders (FIGS. 1-14)
T1 construct: endogenous in cells; host or cells: Jurkat T cells
T1 sequence (Q92918 whole entry): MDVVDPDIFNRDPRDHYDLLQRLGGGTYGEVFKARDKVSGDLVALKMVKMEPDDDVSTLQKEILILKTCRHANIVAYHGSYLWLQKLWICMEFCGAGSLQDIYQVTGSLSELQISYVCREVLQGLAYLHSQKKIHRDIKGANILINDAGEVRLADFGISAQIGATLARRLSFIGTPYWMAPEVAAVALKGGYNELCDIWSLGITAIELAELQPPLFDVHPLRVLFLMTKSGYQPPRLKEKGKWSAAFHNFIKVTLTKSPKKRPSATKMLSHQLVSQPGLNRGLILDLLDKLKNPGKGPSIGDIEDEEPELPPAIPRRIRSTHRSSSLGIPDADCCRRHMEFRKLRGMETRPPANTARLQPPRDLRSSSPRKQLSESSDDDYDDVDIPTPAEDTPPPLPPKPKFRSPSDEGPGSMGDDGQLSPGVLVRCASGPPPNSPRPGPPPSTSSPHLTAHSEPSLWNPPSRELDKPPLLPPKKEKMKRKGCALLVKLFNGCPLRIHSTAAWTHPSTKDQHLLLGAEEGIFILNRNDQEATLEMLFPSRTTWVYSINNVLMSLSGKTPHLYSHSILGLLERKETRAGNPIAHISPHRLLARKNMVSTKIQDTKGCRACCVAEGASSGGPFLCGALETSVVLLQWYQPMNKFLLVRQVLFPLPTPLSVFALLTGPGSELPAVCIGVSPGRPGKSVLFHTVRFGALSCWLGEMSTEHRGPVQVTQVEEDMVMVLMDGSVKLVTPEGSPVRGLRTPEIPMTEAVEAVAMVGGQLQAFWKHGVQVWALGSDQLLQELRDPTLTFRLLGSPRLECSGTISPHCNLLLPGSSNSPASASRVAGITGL

[4] = molecular target: T2, HPK1 (Mus musculus, UniProt P70218); experiment: HPK1 degradation in primary mouse T cells; assay type: cell-based; conditions: 300 nM
T2 construct: HPK1 degraders could effectively degrade endogenous HPK1 in murine T cells; endogenous in cells; host or cells: primary mouse T cells
T2 sequence (P70218 1-827): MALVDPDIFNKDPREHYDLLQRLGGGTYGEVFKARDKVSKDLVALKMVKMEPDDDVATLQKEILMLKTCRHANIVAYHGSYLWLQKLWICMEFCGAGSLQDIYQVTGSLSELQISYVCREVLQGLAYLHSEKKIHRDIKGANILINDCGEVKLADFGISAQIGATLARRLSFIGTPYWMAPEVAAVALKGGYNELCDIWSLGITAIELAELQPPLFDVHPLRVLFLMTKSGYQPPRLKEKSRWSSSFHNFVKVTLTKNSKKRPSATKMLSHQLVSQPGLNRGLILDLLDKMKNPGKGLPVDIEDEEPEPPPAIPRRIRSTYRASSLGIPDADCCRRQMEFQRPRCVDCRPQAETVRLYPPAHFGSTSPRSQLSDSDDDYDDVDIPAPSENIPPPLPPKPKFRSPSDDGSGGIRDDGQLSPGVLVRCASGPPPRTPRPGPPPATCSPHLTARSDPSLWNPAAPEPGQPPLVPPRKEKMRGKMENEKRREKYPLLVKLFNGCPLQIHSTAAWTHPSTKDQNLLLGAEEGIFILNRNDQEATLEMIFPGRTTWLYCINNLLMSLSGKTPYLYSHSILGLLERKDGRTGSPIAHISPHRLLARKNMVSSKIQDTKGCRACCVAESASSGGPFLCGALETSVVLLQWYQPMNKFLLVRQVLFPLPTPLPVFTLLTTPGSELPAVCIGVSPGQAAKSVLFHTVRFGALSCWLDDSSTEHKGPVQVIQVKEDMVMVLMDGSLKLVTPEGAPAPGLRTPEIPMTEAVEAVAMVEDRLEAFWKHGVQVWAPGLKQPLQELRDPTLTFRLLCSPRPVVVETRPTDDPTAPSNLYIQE
Description: as §1
EXAMPLE 353. HPK1 is expressed in all hematopoietic cells examined to date, including T cells, B cells, dendritic cells and neutrophils. Because the breath of therapeutic approaches might involve the use of Chimeric Antigen Receptor (CAR) T cells, dendritic cells, TCR transgenic T cells and Tumor Infiltrating Lymphocytes (TILs), selected HPK1 degraders were evaluated to determine whether they could degrade HPK1 effectively in some of these cell types. […] Potent degradation of HPK1 by HPK1 degraders was also observed in the human DC1 dendritic cells.

[5] = system: CD4+ primary murine T cells; experiment: CD28-independent IL-2 production by CD4+ primary murine T cells (IL-2 ELISA); assay type: cell-based, mouse; conditions: 500 nM, plate-bound anti-CD3 mAb 5 μg/mL, varying soluble anti-CD28 mAb
Description: EXAMPLE 34. I was observed that HPK1^−/− T cells, unlike their wild type counterparts, could readily produce IL-2 in response to CD3 □ crosslinking alone (data not shown). To assess whether HPK1 degraders could confer the same ability to produce IL-2 in a CD28-independent manner, CD4^+ primary murine T cells prepared as described in FIG. 5 were treated with 500 nM of HC58-75 HPK1 degrader or DMSO or Pomalidomide as controls. Their abilities to produce IL-2 in response a fixed concentration of plate-bound anti-CD3[…] mAb (5 μg/mL) in conjunction with varying soluble concentration of anti-CD28 mAb was then assessed.

[6] = system: CD4+ T cells; experiment: CD28-independent IL-2 production by CD4+ T cells; assay type: cell-based; conditions: fixed concentration of plate-bound antibody, varying concentrations of soluble anti-CD28 mAb (FIG. 6)
[7] = system: primary murine T cells; experiment: IL-2 production by primary murine T cells; assay type: cell-based, mouse
Description: as §1

COc1cccc(F)c1-c1ncc2[nH]nc(-c3ccc(N4CCN(C(=O)CCNc5cccc6c5C(=O)N(C5CCC(=O)NC5=O)C6=O)CC4)cc3)c2n1 (stereo not shown) [HC90-50, 2-(2,6-dioxopiperidin-3-yl)-4-((3-(4-(4-(5-(2-fluoro-6-methoxyphenyl)-1H-pyrazolo[4,3-d]pyrimidin-3-yl)phenyl)piperazin-1-yl)-3-oxopropyl)amino)isoindoline-1,3-dione]
percentage of human PBMCs that express high level of IFNγ and TNFα [1]: significantly increased
IL-2 response profile, rank within the HC90 series [2]: top two compounds from the HC90 series
reducing HPK1 protein levels [3]: especially effective in reducing HPK1 protein levels

COc1cccc(F)c1-c1ncc2[nH]nc(-c3ccc(N4CCN(C(=O)CCCNc5cccc6c5C(=O)N(C5CCC(=O)NC5=O)C6=O)CC4)cc3)c2n1 (stereo not shown) [HC90-51, 2-(2,6-dioxopiperidin-3-yl)-4-((4-(4-(4-(5-(2-fluoro-6-methoxyphenyl)-1H-pyrazolo[4,3-d]pyrimidin-3-yl)phenyl)piperazin-1-yl)-4-oxobutyl)amino)isoindoline-1,3-dione]
IL-2 response profile, rank within the HC90 series [2]: top two compounds from the HC90 series
reducing HPK1 protein levels [3]: especially effective in reducing HPK1 protein levels

Cc1[nH]c(/C=C2\C(=O)Nc3ccc(F)cc32)c(C)c1C(=O)NCCCN1CCN(C(=O)CCCCNc2cccc3c2C(=O)N(C2CCC(=O)NC2=O)C3=O)CC1 (stereo not shown) [HC58-38, (Z)—N-(3-(4-(5-((2-(2,6-dioxopiperidin-3-yl)-1,3-dioxoisoindolin-4-yl)amino)pentanoyl)piperazin-1-yl)propyl)-5-((5-fluoro-2-oxoindolin-3-ylidene)methyl)-2,4-dimethyl-1H-pyrrole-3-carboxamide]
reducing HPK1 protein levels [3]: especially effective in reducing HPK1 protein levels

Cc1[nH]c(/C=C2\C(=O)Nc3ccc(F)cc32)c(C)c1C(=O)NCCCN1CCN(CC(=O)NCCCCCCNc2cccc3c2C(=O)N(C2CCC(=O)NC2=O)C3=O)CC1 (stereo not shown) [HC58-76, (Z)—N-(3-(4-(2-((6-((2-(2,6-dioxopiperidin-3-yl)-1,3-dioxoisoindolin-4-yl)amino)hexyl)amino)-2-oxoethyl)piperazin-1-yl)propyl)-5-((5-fluoro-2-oxoindolin-3-ylidene)methyl)-2,4-dimethyl-1H-pyrrole-3-carboxamide]
degradation of HPK1 protein in primary T cells compared with Jurkat T cells [4]: could degrade more HPK1 protein in primary T cells than in Jurkat T cells
reducing HPK1 protein levels [3]: especially effective in reducing HPK1 protein levels

Cc1[nH]c(/C=C2\C(=O)Nc3ccc(F)cc32)c(C)c1C(=O)NCCCN1CCN(CC(=O)NCCCCCNc2cccc3c2C(=O)N(C2CCC(=O)NC2=O)C3=O)CC1 (stereo not shown) [HC58-75, (Z)—N-(3-(4-(2-((5-((2-(2,6-dioxopiperidin-3-yl)-1,3-dioxoisoindolin-4-yl)amino)pentyl)amino)-2-oxoethyl)piperazin-1-yl)propyl)-5-((5-fluoro-2-oxoindolin-3-ylidene)methyl)-2,4-dimethyl-1H-pyrrole-3-carboxamide]
IL-2 production without CD28 co-receptor engagement [5]: could produce IL-2 without the help of CD28 co-receptor engagement
CD28-independent IL-2 production [6]: CD28-independent IL-2 production
endogenous level of HPK1 ([3]; Jurkat T cells, multiple day post exposure (FIG. 3)): could reduce the endogenous level of HPK1
reducing HPK1 protein levels [3]: especially effective in reducing HPK1 protein levels
IL-2 production compared with the DMSO-treated counterpart [7]: produced more IL-2 than the DMSO-treated counterpart
